From patent EP2829880A1, “Method for identifying modulators of BCRP/ABCG2-mediated ATP release and use of said modulators for treating diseases” (Energeia Biosciences, priority 2013, dated 2015)
Where two headings read alike, the source gives them in different places. Each block holds one molecule with its values, some of them ahead of it.

Experiments:
[1] = biological target: T1, BCRP (ABCG2) (Homo sapiens, UniProt Q9UNQ0); experiment: in vitro
T1 sequence (Q9UNQ0 1-655): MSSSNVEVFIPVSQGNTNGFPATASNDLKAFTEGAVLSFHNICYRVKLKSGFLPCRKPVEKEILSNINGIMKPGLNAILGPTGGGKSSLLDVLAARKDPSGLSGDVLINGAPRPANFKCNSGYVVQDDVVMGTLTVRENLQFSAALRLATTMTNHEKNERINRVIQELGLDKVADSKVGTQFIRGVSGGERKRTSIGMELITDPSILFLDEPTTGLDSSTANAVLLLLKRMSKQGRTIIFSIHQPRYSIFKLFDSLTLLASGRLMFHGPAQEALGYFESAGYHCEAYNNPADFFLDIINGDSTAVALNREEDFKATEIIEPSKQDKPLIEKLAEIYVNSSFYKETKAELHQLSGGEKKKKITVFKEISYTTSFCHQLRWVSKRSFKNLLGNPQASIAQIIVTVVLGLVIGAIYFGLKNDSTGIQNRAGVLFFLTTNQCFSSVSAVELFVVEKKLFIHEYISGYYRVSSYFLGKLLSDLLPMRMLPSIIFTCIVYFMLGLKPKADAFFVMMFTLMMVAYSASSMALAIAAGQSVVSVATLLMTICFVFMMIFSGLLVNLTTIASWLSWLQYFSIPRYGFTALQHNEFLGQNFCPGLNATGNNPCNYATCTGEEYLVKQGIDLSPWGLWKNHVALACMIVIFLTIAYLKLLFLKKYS
Excerpt: The uptake of ATP is plotted in pmol/mg protein/min. […] The uptake of a [3H] or [32P]-radiolabelled ATP by an ABC drug transporter selected from the group consisting of BCRP (ABCG2) or MRP1-6 (ABCC1-6) into membrane vesicles (stably overexpressing one type of ABC transporter) under conditions of low pH (compared with physiological pH) can be studied by radiochemical analysis. Subsequently, the effect of a test compound on the ABC drug transporter-mediated ATP release can be studied at different pH values (not shown in figure). • Figure 6: Schematic representation of the ABC drug transporter mediated-ATP-release assay. The transport of a [3H] or [32P]-radiolabelled ATP by an ABC drug transporter selected from the group consisting of BCRP (ABCG2) or MRP1-6 (ABCC1-6) into MDCKII cells (stably overexpressing one type of ABC drug transporter) under conditions of low extracellular pH (compared with physiological pH) and/or hypoxic conditions (0-1% O2, 5% CO2, 94-95% N2) (compared with normoxic conditions (20% O2, 5% CO2, 75% N2)) can be studied by radiochemical analysis or HPLC. Subsequently, the effect of a test compound on the ABC drug transporter-mediated ATP release can be studied at different pH values (not shown in figure). • Figure 7: Schematic representation of ABCG2 expression in normal tissues. Arrows indicate direction of substrate transport. In the brain and testis, ABCG2 is expressed mainly in the blood vessel endothelium, forming part of the blood-brain and blood-testis barrier, respectively. (from: Robey et al. Curr Pharm Biotechnol 2011) • Figure 8: Table 1: Cellular localization and function of ion exchange pumps • Figure 9: Table 2: Protein and/or gene expression of MRP/Mrp isoforms in various brain compartments in human and in mouse and in rat. Table adapted from Dallas et al. (45). • Figure 10: Chemical structure of Danshen compounds • Fig. 10 A: Chemical structures of compounds from Danshen (Salvia miltiorrhiza) • Fig. 10 B: Chemical structures of main lipophilic compounds from Danshen • Fig. 10 C: Chemical structure of main hydrophilic compounds from Danshen • Fig. 10 D: Chemical structure of Magnesium lithospermate B • Fig. 10 E: Chemical structure of salvianolic acid B • Fig. 10 F: Chemical structure of Indirubin
Membrane vesicles from (ABC transporter-transfected) Sf9 cells were prepared in isotonic vesicle buffer consisting of 50 mM Tris and 250 mM sucrose adjusted to pH 7.4. Vesicular transport assays were performed in vesicular transport assay buffer (50 mM HEPES/KOH, 100 mM KCI) as described before (Breedveld et al., 2004, 2007). The vesicular transport assay buffer and the solutions of all other reagents used in transport assays were adjusted to the appropriate pH (pH 6 or pH 7.4) by adding aliquots of HCl (37% w/w) for low pH. The pH of the final solution was controlled (Breedveld et al., 2007). […]
Curve fitting was performed by nonlinear regression analysis using the software package Graphpad Prism version 4 (GraphPad Software, San Diego, USA). Data from concentration-dependent transport assays were analyzed according to the classical Michaelis-Menten model (eq. 1) (Rowland and Tozer, 1995): v = (Vmax x [S])/(Km + [S]) [formula] where v is the rate of transport, Vmax is the maximum velocity, S is the substrate concentration, and Km is the substrate concentration at half-maximum velocity.

[2] = biological target: T1, BCRP (ABCG2); design: made in house; host or cells: Sf9 insect cells (membrane vesicles); details: 1 µM MTX; cited from earlier work
[3] = cited from earlier work
[4] = substrate: Nc1ncnc2c1ncn2[C@@H]1O[C@H](COP(=O)(O)OP(=O)(O)OP(=O)(O)O)[C@@H](O)[C@H]1O; experiment: cells, lysate or membranes named; details: other: pH 6, saturable transport, 37°C, 5 min (Fig. 2A)

Molecule: Nc1ncnc2c1ncn2[C@@H]1O[C@H](COP(=O)(O)OP(=O)(O)OP(=O)(O)O)[C@@H](O)[C@H]1O [[^32P]-γ-labeled-ATP, adenosine 5'-triphosphate]
net uptake into BCRP membrane vesicles ([1]; 0.5 min, 100 µM, pH 6): 80 pmol/mg protein | net uptake into BCRP membrane vesicles ([1]; 10 min, 100 µM, pH 6): 194 pmol/mg protein

Molecule: CCN(CC)CCNC(=O)c1c(C)[nH]c(/C=C2\C(=O)Nc3ccc(F)cc32)c1C [sunitinib]
increase of brain accumulation ([3]; Abcb1a/b(-/-) mice): 2.3 fold | increase of brain accumulation ([3]; Abcb1a/b/Abcg2(-/-) mice): 23 fold

Molecule: Nc1ncnc2c1ncn2[C@@H]1O[C@H](COP(=O)(O)OP(=O)(O)OP(=O)(O)O)[C@@H](O)[C@H]1O [[^3H]ATP, adenosine 5'-triphosphate]
transport by BCRP at pH 6 relative to physiological pH ([1]; 0.5 min, 100 µM, pH 6): 3.8 fold

B1: BCRP (ABCG2) (Homo sapiens) (protein)
chain: MSSSNVEVFIPVSQGNTNGFPATASNDLKAFTEGAVLSFHNICYRVKLKSGFLPCRKPVEKEILSNINGIMKPGLNAILGPTGGGKSSLLDVLAARKDPSGLSGDVLINGAPRPANFKCNSGYVVQDDVVMGTLTVRENLQFSAALRLATTMTNHEKNERINRVIQELGLDKVADSKVGTQFIRGVSGGERKRTSIGMELITDPSILFLDEPTTGLDSSTANAVLLLLKRMSKQGRTIIFSIHQPRYSIFKLFDSLTLLASGRLMFHGPAQEALGYFESAGYHCEAYNNPADFFLDIINGDSTAVALNREEDFKATEIIEPSKQDKPLIEKLAEIYVNSSFYKETKAELHQLSGGEKKKKITVFKEISYTTSFCHQLRWVSKRSFKNLLGNPQASIAQIIVTVVLGLVIGAIYFGLKNDSTGIQNRAGVLFFLTTNQCFSSVSAVELFVVEKKLFIHEYISGYYRVSSYFLGKLLSDLLPMRMLPSIIFTCIVYFMLGLKPKADAFFVMMFTLMMVAYSASSMALAIAAGQSVVSVATLLMTICFVFMMIFSGLLVNLTTIASWLSWLQYFSIPRYGFTALQHNEFLGQNFCPGLNATGNNPCNYATCTGEEYLVKQGIDLSPWGLWKNHVALACMIVIFLTIAYLKLLFLKKYS
Km [4]: 2000 µM | Vmax [4]: 1.5 nmoles/mg protein/min

Now from value to molecule, other results behind:

inhibition at 100 µM ([1]; pH 6): ~46%
Molecule: CN(Cc1cnc2nc(N)nc(N)c2n1)c1ccc(C(=O)N[C@@H](CCC(=O)O)C(=O)O)cc1 [MTX, methotrexate]
ATP-dependent transport by BCRP at pH 5.1 relative to physiological pH [2]: 7 fold

IC50 [1]: > 1000 µM
Molecule: COc1ccnc(C[S+]([O-])c2nc3ccc(OC(F)F)cc3[nH]2)c1OC (stereo not shown) [pantoprazole]
